{"source": "patent US8759363B2", "about": "“Quinazoline-based T cell proliferation inhibitors” (Yissum Research Development Company of the Hebrew …, priority 2010, dated 2014)", "key": {"[1]": {"system": "PC3", "assay": "PC-3 proliferation, BrdU uptake", "format": "cell-based", "conditions": "Homo sapiens"}, "[2]": {"biological_target": "T1, ZAP-70 (Homo sapiens, UniProt P43403)", "T1 construct": "We also immunoprecipitated the ZAP-70 kinase from the treated/untreated cells; endogenous in cells; host or cells: Jurkat", "T1 sequence (P43403 whole entry)": "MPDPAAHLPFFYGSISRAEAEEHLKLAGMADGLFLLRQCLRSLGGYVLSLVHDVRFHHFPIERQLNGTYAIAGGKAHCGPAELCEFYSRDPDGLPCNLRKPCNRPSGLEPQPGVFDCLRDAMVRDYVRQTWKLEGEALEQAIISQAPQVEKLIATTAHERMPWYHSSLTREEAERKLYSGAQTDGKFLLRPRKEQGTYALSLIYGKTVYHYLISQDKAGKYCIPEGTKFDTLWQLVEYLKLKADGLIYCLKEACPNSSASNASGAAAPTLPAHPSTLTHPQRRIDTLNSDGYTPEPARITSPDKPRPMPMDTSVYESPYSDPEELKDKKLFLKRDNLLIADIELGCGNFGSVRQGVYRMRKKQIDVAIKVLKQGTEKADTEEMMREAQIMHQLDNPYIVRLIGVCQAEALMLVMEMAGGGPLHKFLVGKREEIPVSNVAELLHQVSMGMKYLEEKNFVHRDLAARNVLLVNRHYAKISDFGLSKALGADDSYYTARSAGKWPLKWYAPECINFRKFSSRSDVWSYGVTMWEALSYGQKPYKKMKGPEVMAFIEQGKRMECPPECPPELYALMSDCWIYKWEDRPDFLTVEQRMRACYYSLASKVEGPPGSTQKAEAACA", "assay": "SLP-76 kinase assay with ZAP-70 immunoprecipitated from treated Jurkat cells", "format": "cell-based", "conditions": "ZAP-70 from Jurkat cells treated 16 h, recombinant SLP-76 substrate, dose-dependent", "procedure": "ZAP-70 was immunoprecipitated as described above. The immune complexes were washed 2 times with lysis buffer and 2 times with kinase buffer (50 mM Tris pH 7.5, 100 mM NaCl and 10 mM MgCl2). The beads were resuspended in 30 μl of kinase buffer containing 3 μg of His-tagged, full-length human SLP-76 protein (kindly provided by Dr. Yablonski, Technion, Israel), and the kinase reactions were initiated by the addition of 10 μl kinase buffer containing 5 μM ATP. The reactions proceeded for 15 min at 30° C. and were stopped by the addition of 6 μL EDTA (100 mM) and sample buffer. The results were analyzed by western blot [Yablonski, 1998]\nJurkat cells were treated with 2 for 16 h, and SLP-76 phosphorylation was measured by immunoprecipitation of SLP-76 protein followed by western blotting with an antibody to the phosphorylated tyrosines of the protein (FIG. 6A). We also immunoprecipitated the ZAP-70 kinase from the treated/untreated cells, and tested its ability to phosphorylate recombinant SLP-76 protein as substrate (FIG. 6B). […] Presumably the remaining SLP-76 activity was sufficient to allow IL-2 secretion."}, "[3]": {"assay": "In vitro percutaneous absorption and penetration, porcine ear skin", "format": "in vitro ADME", "procedure": "Fresh porcine ears were obtained from local slaughterhouse. Dorsal side skin was surgically removed from the ears. Hairs were trimmed off with an electric trimmer. Subcutaneous fat was carefully cleaned. […] They were stored at −20° C. until use.\nCompound 2 was dispersed into Labrasol® (Gattefosse, France) The mixture was heated to 35° C. and stirred until solubilized. Final concentrations: 0.108% and 0.316%. The final products are clear and somewhat viscous solutions.\nThe skin samples were mounted on Zyleris' High-Throughput Screening (HTS) station. Each individual cell has a diffusion area of 0.503 cm^2 (8 mm in diameter). The receptor chamber was filled with 2.0 ml of 5% Oleth-20 in 1×PBS buffer, pH 7.4 (10 mM Phosphate, 138 mM NaCl and 2 mM KCl), which was continuously mixed at 200 r.p.m. The screening experiments were carried out at 32±0.1° C. Oleth-20 is a polyethylene glycol ether of Oleyl Alcohol [Poly(oxy-1,2-ethanediyl) 20 mol Ethylene Oxide average molar ratio] (Spectrum Chemical, California).\nThe samples were dosed at 5 mg for both formulations. Each formulation was run in three replicates. At the end of each time interval (2, 12, and 24 h), the skin surface was wiped with cotton ball. The standard tape-stripping method was used to remove the stratum corneum (SC) layer. Repeated tape-stripping was continued until SC layer was disappeared (15 strips). Compound 2 absorbed in epidermis/dermis layer was collected by solvent extraction with DMSO. After tape-stripping, the remaining skin samples were minced and vortexed with 1.5 ml DMSO. The supernatant was separated. The extraction step was repeated three times. The supernatants were combined and ready for analysis.\nThe analysis was carried out with a Shimadzu LC-10ADVP instrument with Varian Polaris 3 C18-A, 50×3.0 mm, column. Mobile Phase A: 0.1% formic acid in water. Mobile Phase B: 0.1% formic acid in methanol. Flow rate: 0.4 ml/min.\nMS system is an AB Scienx API4000 operated at positive ionization mode. The calibration range is 2.50-25,000 ng/ml.\nQuality control of the screening experiments was established by measuring mass balances of a couple of selected runs (spot-check). Measurement of mass balance is to determine total amount of 2 recovered after each experiment. After the selected experiments, total amount of 2 left on the skin surface, absorbed in stratum corneum, in epidermis/dermis layer, and collected in the receptor medium was extracted and determined by LC-MS/MS analysis. The total amount was then compared to the initial dosing amount to determine recovery percentage. Two of the 12 hr runs for the 0.316% formulation was selected for the spot-check. […] They are within acceptable range of 80-120%."}, "[4]": {"system": "PBMC", "assay": "PBMC proliferation, BrdU incorporation", "format": "cell-based, human", "conditions": "Homo sapiens", "in_short": "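Donor PBMC, FCS-depleted 12 h, stimulated with ConA (10 μg/ml) and cultured 3 days (1×10^5 cells/well, duplicate) with inhibitor. Proliferation read as 10 μM BrdU incorporation by colorimetric ELISA (anti-BrdU-POD, TMB), absorbance 450 nm.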"}}, "note": "“And” between values parts separate entries of the source, which are not always exact repeats. Equal values may be shown once. Read-outs that look alike come from different tables or passages of the source."}
{"smiles": "COc1cc(-c2nc(Nc3ccc(C)cc3)c3ccccc3n2)cc(OC)c1OC", "note": "[Compound 2, N-p-tolyl-2-(3,4,5-trimethoxyphenyl)quinazolin-4-amine]", "values": [{"measurement": "IC50", "setting": "[1]; PC3, non-stimulated, read-out: IC50 of non-stimulated cells", "value": "~10000", "unit": "nM"}, {"measurement": "IC50", "setting": "[1]; PC3, stimulated, read-out: IC50 of stimulated cells", "value": "> 10000", "unit": "nM"}, {"measurement": "activity of ZAP-70", "setting": "[2]", "value": "inhibited"}, {"measurement": "skin concentration relative to the IC50", "setting": "[3]; after 24 h, 0.3% 2 in Labrasol", "value": 1000, "unit": "folds"}, {"measurement": "final concentration in the skin (epidermis/dermis)", "setting": "[3]; after 24 h, initial concentration 0.3% 2 in Labrasol, estimated", "value": "higher than 114 μM"}, {"measurement": "penetration of the epidermis/dermis layer", "setting": "[3]; porcine ears skin, Labrasol formulation", "value": "able to penetrate"}, {"measurement": "recovery percentage (mass balance)", "setting": "[3]; two 12 hr runs, 0.316% formulation", "value": "89% and 114%"}, {"measurement": "IC50", "setting": "[4]; PBMC, ConA 10 μg/ml, 72 h, read-out: IC50 ConA-stimulated proliferation of PBMC", "value": "~100", "unit": "nM"}, {"measurement": "IC50", "setting": "[4]; PBMC, ODN2006 0.5 μg/ml or LPS 50 μg/ml, 72 h, read-out: IC50 ODN2006 and LPS-stimulated proliferation of PBMCs", "value": "~500", "unit": "nM"}, {"measurement": "IC50", "setting": "[4]; ConA-stimulated PBMC, BrdU uptake, nM ± SD, read-out: IC50 PBMC proliferation inhibition", "value": 70, "unit": "nM"}, {"measurement": "IC50", "setting": "[4]; PBMC, non-stimulated, BrdU uptake, read-out: IC50 of non-stimulated cells", "value": 50, "unit": "nM"}]}
